Source: patent US9656962B2, “Ring-contracted morphinans and the use thereof” (Purdue Pharma L.P., priority 2013, dated 2017)

How the values were obtained:
[1] = target: recombinant human kappa opioid receptor (κ) (Homo sapiens (Human), UniProt P41145); experiment: κ-opioid receptor radioligand binding assay ([3H]-U69,593); settings: binding affinity
Method: κ-Opioid Receptor Binding Assay Procedures: Membranes from HEK-293 cells, CHO cells or U-2 OS cells expressing the recombinant human kappa opioid receptor (κ) were prepared by lysing cells in ice cold hypotonic buffer (2.5 mM MgCl2, 50 mM HEPES, pH 7.4) (10 mL/10 cm dish) followed by homogenization with a tissue grinder/Teflon pestle. Membranes from a cell line naturally expressing kappa opioid receptor can also be used. Membranes were collected by centrifugation at 30,000×g for 15 min at 4° C. and pellets were resuspended in hypotonic buffer to a final concentration of 1-3 mg/mL. Protein concentrations were determined using the BioRad protein assay reagent with bovine serum albumen as standard. Aliquots of κ receptor membranes were stored at −80° C.
Radioligand dose displacement assays used 0.4 nM [^3H]-U69,593 (GE Healthcare, Piscataway, N.J.; 40 Ci/mmole) with 15 μg membrane protein (recombinant opioid receptor expressed in HEK 293 cells; in-house prep) in a final volume of 200 μl binding buffer (5% DMSO, 50 mM Trizma base, pH 7.4). Non-specific binding was determined in the presence of 10 μM unlabeled naloxone or U69,593. All reactions were performed in 96-well polypropylene plates for 1 hour at a temperature of about 25° C. Binding reactions were terminated by rapid filtration onto 96-well Unifilter GF/C filter plates (Perkin Elmer, Shelton, Conn.) presoaked in 0.5% polyethylenimine (Sigma). Harvesting was performed using a 96-well tissue harvester (Perkin Elmer, Shelton, Conn.) followed by five filtration washes with 200 μl ice-cold binding buffer. Filter plates were subsequently dried at 50° C. for 1-2 hours. Fifty μl/well scintillation cocktail (Perkin Elmer, Shelton, Conn.) was added and plates were counted in a Packard Top-Count for 1 min/well.

κ-opioid receptor [2] = target: T1, κ-opioid receptor (Homo sapiens (Human), UniProt P41145); experiment: κ-opioid receptor [35S]GTPγS functional assay, HEK-293 cells (Table 6); format: biochemical
Method: κ-Opioid Receptor Functional Assay Procedures: Functional [^35S]GTPγS binding assays were conducted as follows. κ opioid receptor membrane solution was prepared by sequentially adding final concentrations of 0.026 μg/μl κ membrane protein (in-house), 10 μg/mL saponin, 3 μM GDP and 0.20 nM [^35S]GTPγS to binding buffer (100 mM NaCl, 10 mM MgCl2, 20 mM HEPES, pH 7.4) on ice. The prepared membrane solution (190 μl/well) was transferred to 96-shallow well polypropylene plates containing 10 μl of 20× concentrated stock solutions of agonist prepared in DMSO. Plates were incubated for 30 min at a temperature of about 25° C. with shaking. Reactions were terminated by rapid filtration onto 96-well Unifilter GF/B filter plates (Perkin Elmer, Shelton, Conn.) using a 96-well tissue harvester (Packard) and followed by three filtration washes with 200 μl ice-cold binding buffer (10 mM NaH2PO4, 10 mM Na2HPO4, pH 7.4). Filter plates were subsequently dried at 50° C. for 2-3 hours. Fifty μl/well scintillation cocktail (Perkin Elmer, Shelton, Conn.) was added and plates were counted in a Packard Top-Count for 1 min/well. […]
The following TABLE 6 provides results on the activity response of certain Compounds of the Invention at the μ- and κ-opioid receptors determined as described above using HEK-293 cells.

μ-opioid receptor [3] = target: T2, μ-opioid receptor (Homo sapiens (Human), UniProt P35372); experiment: μ-opioid receptor [35S]GTPγS functional assay, HEK-293 cells (Table 6); format: biochemical
Summary of the method: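 [35S]GTPγS (0.20 nM) binding in HEK-293 membranes expressing recombinant receptor (0.026 mg/mL protein), with GDP (3 mM) and saponin, HEPES buffer pH 7.4, 30 min at about 25° C. Bound radioactivity collected by filtration and counted. Emax (%) expressed relative to DAMGO from sigmoidal dose-response fits.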

δ-opioid receptor = δ-opioid receptor (Homo sapiens (Human), UniProt P41143); experiment: δ-opioid receptor [35S]GTPγS functional assay (Table 4); format: biochemical
δ-opioid receptor, sequence (P41143 whole entry, looked up): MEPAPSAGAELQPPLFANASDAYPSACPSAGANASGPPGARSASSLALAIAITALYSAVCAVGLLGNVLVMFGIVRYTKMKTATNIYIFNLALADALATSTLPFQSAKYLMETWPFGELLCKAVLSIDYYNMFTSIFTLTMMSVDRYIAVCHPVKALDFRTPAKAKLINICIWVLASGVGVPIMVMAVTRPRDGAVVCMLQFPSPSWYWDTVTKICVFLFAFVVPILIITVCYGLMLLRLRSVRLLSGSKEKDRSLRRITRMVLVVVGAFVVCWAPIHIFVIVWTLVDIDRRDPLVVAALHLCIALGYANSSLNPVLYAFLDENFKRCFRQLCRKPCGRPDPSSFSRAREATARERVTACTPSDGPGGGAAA
Method: δ-Opioid Receptor Functional Assay Procedures: Functional [^35S]GTPγS binding assays were conducted as follows. δ opioid receptor membrane solution was prepared by sequentially adding final concentrations of 0.026 μg/μl δ membrane protein (Perkin Elmer, Shelton, Conn.), 10 μg/mL saponin, 3 μM GDP and 0.20 nM [^35S]GTPγS to binding buffer (100 mM NaCl, 10 mM MgCl2, 20 mM HEPES, pH 7.4) on ice. The prepared membrane solution (190 μl/well) was transferred to 96-shallow well polypropylene plates containing 10 μl of 20× concentrated stock solutions of agonist prepared in DMSO. Plates were incubated for 30 min at a temperature of about 25° C. with shaking Reactions were terminated by rapid filtration onto 96-well Unifilter GF/B filter plates (Perkin Elmer, Shelton, Conn.) using a 96-well tissue harvester (Packard) and followed by three filtration washes with 200 μl ice-cold binding buffer (10 mM NaH2PO4, 10 mM Na2HPO4, pH 7.4). Filter plates were subsequently dried at 50° C. for 1-2 hours. Fifty μl/well scintillation cocktail (Perkin Elmer, Shelton, Conn.) was added and plates were counted in a Packard Top-count for 1 min/well.
δ GTP Emax (%) is the maximal effect elicited by a compound relative to the effect elicited by met-enkephalin.

κ-opioid receptor [4] = target: T1, κ-opioid receptor; experiment: κ-opioid receptor [35S]GTPγS functional assay, HEK-293 or CHO cells (Table 4); format: biochemical; settings: for Emax: relative to U69,593; for EC50: κ GTP
Method: κ-Opioid Receptor Functional Assay Procedures: Functional [^35S]GTPγS binding assays were conducted as follows. κ opioid receptor membrane solution was prepared by sequentially adding final concentrations of 0.026 μg/μl κ membrane protein (in-house), 10 μg/mL saponin, 3 μM GDP and 0.20 nM [^35S]GTPγS to binding buffer (100 mM NaCl, 10 mM MgCl2, 20 mM HEPES, pH 7.4) on ice. The prepared membrane solution (190 μl/well) was transferred to 96-shallow well polypropylene plates containing 10 μl of 20× concentrated stock solutions of agonist prepared in DMSO. Plates were incubated for 30 min at a temperature of about 25° C. with shaking. Reactions were terminated by rapid filtration onto 96-well Unifilter GF/B filter plates (Perkin Elmer, Shelton, Conn.) using a 96-well tissue harvester (Packard) and followed by three filtration washes with 200 μl ice-cold binding buffer (10 mM NaH2PO4, 10 mM Na2HPO4, pH 7.4). Filter plates were subsequently dried at 50° C. for 2-3 hours. Fifty μl/well scintillation cocktail (Perkin Elmer, Shelton, Conn.) was added and plates were counted in a Packard Top-Count for 1 min/well.
κ GTP Emax (%) is the maximal effect elicited by a compound relative to the effect elicited by U69,593.
In TABLE 4, activity response of certain Compounds of the Invention to the μ- and κ-opioid receptors was determined as described above for functional assays using HEK-293 or CHO cells.

κ-opioid receptor [5] = target: T1, κ-opioid receptor; experiment: κ-opioid receptor [35S]GTPγS functional assay, U-2 OS cells (Table 5); format: biochemical; settings: for Emax: relative to U69,593; for EC50: κ GTP
Summary of the method: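 [35S]GTPγS binding in κ receptor membranes (0.026 μg/μl protein) with 10 μg/mL saponin, 3 μM GDP and 0.20 nM [35S]GTPγS in pH 7.4 HEPES/NaCl/MgCl2 buffer. Agonist incubation lasted 30 min at about 25 °C, followed by filtration and scintillation counting. Emax is expressed relative to U69,593.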

μ-opioid receptor [6] = target: T2, μ-opioid receptor; experiment: μ-opioid receptor [35S]GTPγS functional assay, U-2 OS cells (Table 5); format: biochemical; settings: for Emax: relative to DAMGO; for EC50: μ GTP
Summary of the method: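 Membranes (0.026 mg/mL) from cells expressing recombinant human μ-opioid receptor in a U-2 OS background were incubated with 0.20 nM [35S]GTPγS, 3 mM GDP and saponin in 20 mM HEPES pH 7.4, 100 mM NaCl, 10 mM MgCl2 for 30 min at about 25 °C. Filter-bound radioactivity counted; sigmoidal dose-response fits gave values, Emax relative to DAMGO.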

μ-opioid receptor [7] = target: T2, μ-opioid receptor; experiment: μ-opioid receptor [35S]GTPγS functional assay, HEK-293 or CHO cells (Table 4); format: biochemical; settings: for Emax: relative to DAMGO; for EC50: μ GTP
Summary of the method: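 Membranes from HEK-293, CHO or U-2 OS cells (or commercial) expressing recombinant μ receptor; 0.20 nM [35S]GTPγS, 3 mM GDP, saponin, in 100 mM NaCl/10 mM MgCl2/20 mM HEPES pH 7.4.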

[8] = target: human opioid receptor-like receptor (ORL-1) (Homo sapiens (Human), UniProt P41146); experiment: ORL-1 receptor radioligand binding assay ([3H]-nociceptin); settings: binding affinity, read-out: Ki (nM) ORL-1
Method: ORL-1 Receptor Binding Assay Procedure: Membranes from recombinant HEK-293 cells expressing the human opioid receptor-like receptor (ORL-1) (Perkin Elmer, Shelton, Conn.) was prepared by lysing cells in ice-cold hypotonic buffer (2.5 mM MgCl2, 50 mM HEPES, pH 7.4) (10 ml/10 cm dish) followed by homogenization with a tissue grinder/Teflon pestle. Membranes were collected by centrifugation at 30,000×g for 15 min at 4° C. and pellets resuspended in hypotonic buffer to a final concentration of 1-3 mg/ml. Protein concentrations were determined using the BioRad protein assay reagent with bovine serum albumen as standard. Aliquots of the ORL-1 receptor membranes were stored at −80° C.
Radioligand binding assays (screening and dose-displacement) use 0.1 nM [^3H]-nociceptin (Perkin Elmer, Shelton, Conn.; 87.7 Ci/mmole) with 12 μg membrane protein in a final volume of 500 μl binding buffer (10 mM MgCl2, 1 mM EDTA, 5% DMSO, 50 mM HEPES, pH 7.4). Non-specific binding was determined in the presence of […] unlabeled nociceptin (American Peptide Company). […] Fifty μl/well scintillation cocktail (Perkin Elmer, Shelton, Conn.) was added and plates are counted in a Packard Top-Count for 1 min/well. The data from screening and dose-displacement experiments were analyzed using Microsoft Excel and the curve fitting functions in GraphPad PRISM™, v. […]

μ-opioid receptor [9] = target: T2, μ-opioid receptor; experiment: μ-opioid receptor radioligand binding assay ([3H]-diprenorphine); settings: binding affinity
Method: μ-Opioid Receptor Binding Assay Procedures: Radioligand dose-displacement binding assays for μ-opioid receptors used 0.3 nM [^3H]-diprenorphine (Perkin Elmer, Shelton, Conn.), with […] membrane protein/well in a final volume of 500 μl binding buffer (10 mM MgCl2, 1 mM EDTA, 5% DMSO, 50 mM HEPES, pH 7.4). Reactions were carried out in the absence or presence of increasing concentrations of unlabeled naloxone. All reactions were conducted in 96-deep well polypropylene plates for 2 hours at room temperature. Binding reactions were terminated by rapid filtration onto 96-well Unifilter GF/C filter plates (Perkin Elmer, Shelton, Conn.), presoaked in 0.5% polyethylenimine using a 96-well tissue harvester (Perkin Elmer, Shelton, Conn.) followed by performing three filtration washes with 500 μl of ice-cold binding buffer. Filter plates were subsequently dried at 50° C. for 2-3 hours. BetaScint scintillation cocktail (Perkin Elmer, Shelton, Conn.) was added (50 μl/well), and plates were counted using a Packard Top-Count for 1 min/well. The data were analyzed using the one-site competition curve fitting functions in GraphPad PRISM™ v. 3.0 or higher (San Diego, Calif.), or an in-house function for one-site competition curve-fitting.

| SMILES | Ki [1] [nM] | Emax (κ-opioid receptor [2]; relative to U69,593) [%] | EC50 (κ-opioid receptor [2]; κ GTP) [nM] | Emax (μ-opioid receptor [3]; relative to DAMGO) [%] | EC50 (μ-opioid receptor [3]; μ GTP) [nM] | Emax (δ-opioid receptor; relative to met-enkephalin) [%] | EC50 (δ-opioid receptor; δ GTP) [nM] | Emax (κ-opioid receptor [4]) [%] | EC50 (κ-opioid receptor [4]) [nM] | Emax (κ-opioid receptor [5]) [%] | EC50 (κ-opioid receptor [5]) [nM] | Emax (μ-opioid receptor [6]) [%] | EC50 (μ-opioid receptor [6]) [nM] | Emax (μ-opioid receptor [7]) [%] | EC50 (μ-opioid receptor [7]) [µM] | Ki [8] [nM] | Ki (μ-opioid receptor [9]) [nM] | EC50 (μ-opioid receptor [7]; bound given in μM) [µM] |
| --- | --- | --- | --- | --- | --- | --- | --- | --- | --- | --- | --- | --- | --- | --- | --- | --- | --- | --- |
| CN1CC[C@]23C[C@H](C(=O)NCCc4ccccc4)C[C@@]2(O)[C@H]1Cc1ccc(O)cc13 [Compound 108, (2S,3aS,4R,9bS)-3a,8-dihydroxy-12-methyl-N-phenethyl-1,2,3,3a,4,5-hexahydro-4,9b-(epiminoethano)cyclo-penta[a]naphthalene-2-carboxamide] | 9.29 ± 2.14 | 40.6 ± 3.3 | 138 ± 35 | 83.3 ± 5.17 | 12.4 ± 2.76 | – | – | – | – | – | – | – | – | – | – | – | – | – |
| Cc1ccc(CNC(=O)[C@H]2C[C@]34CCN(CC5CC5)[C@H](Cc5ccc(O)cc53)[C@]4(O)C2)cc1 [Compound 38, (2S,3aS,4R,9bS)-12-(cyclopropylmethyl)-3a,8-dihydroxy-N-(4-methylbenzyl)-1,2,3,3a,4,5-hexahydro-4,9b-(epiminoethano)cyclopenta[a]naphthalene-2-carboxamide] | 0.16 ± 0.044 | – | – | – | – | 50.1 ± 1.25 | 1.56 ± 0.055 | 96.3 ± 3.18 | 0.43 ± 0.048 | 105 ± 3.18 | 0.065 ± 0.01 | 77.7 ± 2.4 | 0.25 ± 0.024 | 56.5 ± 2.6 | 0.00062 ± 0.00012 | – | – | – |
| N=C(N)NCCNC(=O)[C@@H]1C[C@]23CCN(CC4CC4)[C@H](Cc4ccc(O)cc42)[C@]3(O)C1 [Compound 6, (2R,3aS,4R,9bS)-12-(cyclopropylmethyl)-N-(2-guanidinoethyl)-3a,8-dihydroxy-1,2,3,3a,4,5-hexahydro-4,9b-(epimino-ethano)cyclopenta[a]naphthalene-2-carboxamide] | 0.098 ± 0.032 | – | – | – | – | – | – | 48.6 ± 0.98 | 0.86 ± 0.16 | 98 ± 3.21 | 0.87 ± 0.16 | 57 ± 2.08 | – | 0 | – | 10300 ± 2140 | – | – |
| COC(=O)[C@@H]1C[C@]23CCN(CC4CC4)[C@H](Cc4ccc(O)cc42)[C@]3(O)C1 [Compound 12, (2R,3aS,4R,9bS)-methyl-12-(cyclopropylmethyl)-3a,8-dihydroxy-1,2,3,3a,4,5-hexahydro-4,9b-(epimino-ethano)cyclopenta[a]naphthalene-2-carboxylate] | 0.3 ± 0.056 | – | – | – | – | – | – | 82.7 ± 1.2 | 2.95 ± 1.06 | 108 ± 3.51 | 1.7 ± 0.26 | 55.6 ± 3.83 | 1.22 ± 0.27 | 1 | – | – | 0.53 ± 0.076 | > 20 |
